How the values were obtained:
[1] = biological target: T1, human dipeptidyl peptidase-4 (DPP4) (Homo sapiens, UniProt P27487); assay: DPP4 inhibitor screening kit fluorescence assay (H-Gly-Pro-AMC cleavage); type: biochemical; settings: n = 3
T1 construct: purchased Sigma Aldrich
Protocol: Oxytocin peptide was purchased from the company Parfarm S.A (District Federal, Mexico), and human dipeptidyl peptidase-4 inhibitor screening kit, Black-well 96 well plate for fluorescence assays were purchased from Sigma Aldrich (St. Louis, MO, USA).
The experimental studies were carried out using the human DPP4 inhibitor screening kit to validate the computational results. Briefly, the pure protein DPP4 cleaves non-fluorescence substrate H-Gly-Pro-AMC and releases fluorescence product AMC whose fluorescence emissions, λex = 360 nm and λem = 460 nm on each well, were recorded in a kinetic mode for 30 min using microplate reader Thermo Scientific Varioskan Flash Multimode Reader by Thermo Scientific. The relative percent of inhibition was calculated using Equation (1), where df/dt denotes changes in fluorescence with time. The graphs were plotted for all experiments (n = 3) using Graph Pad software. All groups were compared with p < 0.05 as statistically significant. To obtain the p-value, an ordinary one-way ANOVA unpaired t-test was applied using Graph Pad software (San Diego, CA, USA). All the data in graphs are expressed as mean ± S.D:(1) % Relative inhibition=(df/dt)DPP4 enzyme−(df/dt)(DPP4−OXT peptide)/(df/dt)DPP4 enzyme×100

DPP4 = settings: cited from earlier work; for IC50: read-out: IC50 (uM), peptides as DPP4 inhibitors, Supplementary Table S1

T1 sequence (P27487 whole entry): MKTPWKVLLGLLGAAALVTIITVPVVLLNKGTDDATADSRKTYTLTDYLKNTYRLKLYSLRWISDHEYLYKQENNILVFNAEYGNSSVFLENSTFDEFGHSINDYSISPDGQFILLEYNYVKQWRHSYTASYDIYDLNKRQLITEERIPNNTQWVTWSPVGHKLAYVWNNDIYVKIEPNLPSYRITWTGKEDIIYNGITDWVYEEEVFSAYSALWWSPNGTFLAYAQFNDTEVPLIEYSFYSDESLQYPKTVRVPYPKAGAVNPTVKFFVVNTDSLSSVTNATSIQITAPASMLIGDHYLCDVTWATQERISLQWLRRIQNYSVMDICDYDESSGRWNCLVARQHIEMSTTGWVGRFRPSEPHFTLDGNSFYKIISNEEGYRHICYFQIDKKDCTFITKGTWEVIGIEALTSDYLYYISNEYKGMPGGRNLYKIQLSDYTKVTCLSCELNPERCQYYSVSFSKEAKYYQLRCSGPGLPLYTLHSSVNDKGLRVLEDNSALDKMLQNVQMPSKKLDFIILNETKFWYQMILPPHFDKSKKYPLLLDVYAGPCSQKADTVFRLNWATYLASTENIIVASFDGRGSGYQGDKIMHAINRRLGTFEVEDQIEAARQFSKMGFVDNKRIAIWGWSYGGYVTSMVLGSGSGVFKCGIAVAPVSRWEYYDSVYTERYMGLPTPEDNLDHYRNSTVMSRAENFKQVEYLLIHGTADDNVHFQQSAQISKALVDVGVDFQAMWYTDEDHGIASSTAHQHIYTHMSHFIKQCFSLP

Molecule | IC50 (DPP4) [µM] | other results
CC[C@H](C)[C@@H]1NC(=O)[C@H](Cc2ccc(O)cc2)NC(=O)[C@@H](N)CSSC[C@@H](C(=O)N2CCC[C@H]2C(=O)N[C@@H](CC(C)C)C(=O)NCC(N)=O)NC(=O)[C@H](CC(N)=O)NC(=O)[C@H](CCC(N)=O)NC1=O [oxytocin] |  | inhibition at 0.002 µM ([1]; 2 nM oxytocin, mean, read-out: relative percent inhibition of DPP4): 6.3%; inhibition at 0.019 µM ([1]; 19 nM oxytocin, mean, read-out: relative percent inhibition of DPP4): 44.5%; inhibition at 0.28037 µM ([1]; 280.37 nM oxytocin, mean, read-out: relative percent inhibition of DPP4): 61.6%; inhibition at 0.85047 µM ([1]; 850.47 nM oxytocin, mean, read-out: relative percent inhibition of DPP4): 75.4%; inhibition at 1.6 µM ([1]; 1600 nM oxytocin, mean, read-out: relative percent inhibition of DPP4): 81.2%; IC50 ([1]; fluorescence assay, substrate H-Gly-Pro-AMC, λex 360 nm / λem 460 nm, kinetic mode 30 min, dose-response curve in Figure S1, read-out: inhibitory concentration IC50 of DPP4): 0.111 µM
Diprotin A | 2.9 | IC50 of DPP4 (DPP4; peptide isolated from culture of Bacillus cereus): 2900 µg/mL
FPGPIPD | 260 | 
GPAG | 41.1 | 
GPGA | 41.9 | 
IPAVF | 44.7 | 
IPIQY | 26.7 | 
IPIY | 35.2 | 
LPLPL | 358 | 
LPQNIPP | 160 | 
LPYPY | 90.8 | 
PGPIHDS | 1000 | 
YPYY | 208 | 
